Experiments:
Serine protease 1 = molecular target: T1, Serine protease 1 (Bos taurus, UniProt P00760); assay: Compound was evaluated for its inhibitory activity against bovine trypsin
T1 sequence (P00760 whole entry): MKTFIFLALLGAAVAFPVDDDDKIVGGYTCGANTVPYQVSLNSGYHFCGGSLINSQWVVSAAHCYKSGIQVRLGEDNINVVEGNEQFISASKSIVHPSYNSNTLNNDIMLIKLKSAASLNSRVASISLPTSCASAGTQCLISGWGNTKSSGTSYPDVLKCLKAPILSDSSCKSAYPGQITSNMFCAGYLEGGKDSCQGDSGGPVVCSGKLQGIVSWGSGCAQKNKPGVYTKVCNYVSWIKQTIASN

Prothrombin = Prothrombin (Homo sapiens, UniProt P00734); assay: Compound was evaluated for its inhibitory activity against human thrombin

## COc1ccc2cc(S(=O)(=O)N[C@@H](Cc3ccc(C(=N)N)s3)C(=O)N(C)C3CCCC3)ccc2c1
Serine protease 1
  Ki: 134 nM
Prothrombin
  Ki: 0.49 nM

## CN(C(=O)[C@H](Cc1ccc(C(=N)N)s1)NS(=O)(=O)c1ccc2ccccc2c1)C1CCCC1
Serine protease 1
  Ki: 153 nM
Prothrombin
  Ki: 3 nM

## CCCc1ccc(S(=O)(=O)N[C@@H](Cc2ccc(C(=N)N)cc2)C(=O)N(C)C2CCCC2)cc1
Serine protease 1
  Ki: 2440 nM
Prothrombin
  Ki: 0.84 nM

## CN(C(=O)[C@H](Cc1ccc(C(=N)NN)s1)NS(=O)(=O)c1ccc2ccccc2c1)C1CCCC1
Prothrombin
  Ki: 91 nM

## CCCc1ccc(S(=O)(=O)N[C@@H](Cc2ccc(C(=N)N)s2)C(=O)N(C)C2CCCC2)cc1
Serine protease 1
  Ki: 150 nM
Prothrombin
  Ki: 0.6 nM

## CN(C(=O)[C@H](Cc1ccc(C(=N)N)cc1)NS(=O)(=O)c1ccc2ccccc2c1)C1CCCC1
Serine protease 1
  Ki: 16200 nM
Prothrombin
  Ki: 6.8 nM

— ChEMBL document CHEMBL1130864, “Potent and efficacious thienylamidine-incorporated thrombin inhibitors” (Bioorg Med Chem Lett, 1998)
